Results as given in PubChem BioAssay AID248 (DTP/NCI, 2004).
Inconclusive results and toxic doses are left out. Rule as the data show it: active = T/C of 150% or more; inactive = T/C below 125%.

Test system: L1210 leukemia ip in BDF1 mice, survival T/C
Test: NCI In Vivo Anticancer Drug Screen. Data for tumor model L1210 Leukemia (intraperitoneal) in B6D2F1 (BDF1) mice
Settings: endpoint: mean survival time, higher = longer survival
Outline: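 Antitumor effect is assessed in tumor-bearing animals. Survival in the compound arm is compared with a vehicle-dosed control arm and expressed as their quotient.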

[1] = dose: 100.0 mg/kg/injection, schedule: Q04DX003 (ip), vehicle: Klucel (hydroxypropylcellulose) (HPC)
[2] = dose: 200.0 mg/kg/injection, schedule: Q04DX003 (ip), vehicle: Klucel (hydroxypropylcellulose) (HPC)
[3] = dose: 400.0 mg/kg/injection, schedule: Q04DX003 (ip), vehicle: Klucel (hydroxypropylcellulose) (HPC)
[4] = dose: 100.0 mg/kg/injection, schedule: Q01DX009 (ip), vehicle: Klucel (hydroxypropylcellulose) (HPC)
[5] = dose: 200.0 mg/kg/injection, schedule: Q01DX009 (ip), vehicle: Klucel (hydroxypropylcellulose) (HPC)
[6] = dose: 400.0 mg/kg/injection, schedule: Q01DX009 (ip), vehicle: Klucel (hydroxypropylcellulose) (HPC)
[7] = dose: 100.0 mg/kg/injection, schedule: Q01DX009 (ip), vehicle: saline
[8] = dose: 100.0 mg/kg/injection, schedule: Q04DX003 (ip), vehicle: saline
[9] = dose: 200.0 mg/kg/injection, schedule: Q01DX009 (ip), vehicle: saline
[10] = dose: 200.0 mg/kg/injection, schedule: Q04DX003 (ip), vehicle: saline
[11] = dose: 400.0 mg/kg/injection, schedule: Q04DX003 (ip), vehicle: saline

Measured: T/C

O=[N+]([O-])c1ccc(C2=Cc3cccn3-c3ccccc3S2(=O)=O)cc1
inactive: [1] 96 % of control | [2] 95 % of control | [3] 98 % of control

COC(=O)C(N)CO (stereo not given)
inactive: dose: 100.0 mg/kg/injection, schedule: Q04DX003 (ip), vehicle: saline with Tween-80 105 % of control | dose: 200.0 mg/kg/injection, schedule: Q04DX003 (ip), vehicle: saline with Tween-80 105 % of control | dose: 400.0 mg/kg/injection, schedule: Q04DX003 (ip), vehicle: saline with Tween-80 91 % of control

COCCOC(=O)Cc1cccc2ccccc12
inactive: dose: 222.0 mg/kg/injection, schedule: Q01DX Z (ip), vehicle: saline 90 % of control | dose: 333.0 mg/kg/injection, schedule: Q01DX Z (ip), vehicle: saline 100 % of control | dose: 500.0 mg/kg/injection, schedule: Q01DX Z (ip), vehicle: saline 110 % of control

Cc1ccc(S(=O)(=O)NN=C2CCS(=O)CC2)cc1 (stereo not given)
inactive: [4] 90 % of control | [5] 97 % of control | [6] 94 % of control

Nc1nc(Cl)c(Br)c(=O)[nH]1
inactive: dose: 25.0 mg/kg/injection, schedule: Q01DX Z (ip), vehicle: methylcellulose (MC) 98 % of control | dose: 50.0 mg/kg/injection, schedule: Q01DX Z (ip), vehicle: methylcellulose (MC) 89 % of control

C[CH2][Sn]([Cl])([CH2]C)[O][Sn]([Cl])([CH2]C)[CH2]C
inactive: dose: 3.12 mg/kg/injection, schedule: Q04DX003 (ip), vehicle: saline with Tween-80 100 % of control | dose: 6.25 mg/kg/injection, schedule: Q04DX003 (ip), vehicle: saline with Tween-80 100 % of control | dose: 12.5 mg/kg/injection, schedule: Q04DX003 (ip), vehicle: saline with Tween-80 106 % of control

CC1=C(c2ccccc2)C(c2ccccc2)=C(C)C1=NNc1ccc([N+](=O)[O-])cc1[N+](=O)[O-]
inactive: dose: 100.0 mg/kg/injection, schedule: Q01DX001 (ip), vehicle: saline with Tween-80 86 % of control | dose: 200.0 mg/kg/injection, schedule: Q01DX001 (ip), vehicle: saline with Tween-80 86 % of control | dose: 400.0 mg/kg/injection, schedule: Q01DX001 (ip), vehicle: saline with Tween-80 86 % of control

CN1CCC(OC(N)=O)CC1
inactive: [7] 99 % of control | [8] 103 % of control | [9] 104 % of control | [10] 103 % of control | dose: 400.0 mg/kg/injection, schedule: Q01DX009 (ip), vehicle: saline 96 % of control | [11] 101 % of control

CC1(C)C=CN2C(=O)C3=CCCN3C(=O)C2CC12Nc1ccccc1C2=O (stereo not given)
inactive: dose: 100.0 mg/kg/injection, schedule: Q04DX003 (ip), vehicle: other 111 % of control | dose: 200.0 mg/kg/injection, schedule: Q04DX003 (ip), vehicle: other 103 % of control | dose: 400.0 mg/kg/injection, schedule: Q04DX003 (ip), vehicle: other 93 % of control

O=[N+]([O-])c1ccc(OCCCOc2ccc(S(=O)(=O)F)cc2)cc1
inactive: [8] 102 % of control | [10] 102 % of control | [11] 106 % of control

NCC1OC(OC2C(N)CC(N)C(O)C2O)C(NC(=O)c2ccccc2)C(O)C1O (stereo not given)
inactive: [1] 91 % of control | [2] 96 % of control | [3] 91 % of control

Cc1c([N+](=O)[O-])cc(C(C)(C)C)c(OC(=S)N(C)C)c1[N+](=O)[O-]
inactive: dose: 25.0 mg/kg/injection, schedule: Q04DX002 (ip), vehicle: saline with Tween-80 105 % of control | dose: 100.0 mg/kg/injection, schedule: Q04DX002 (ip), vehicle: saline with Tween-80 86 % of control

CCC/C=C/CC1CCCCC1
inactive: dose: 50.0 mg/kg/injection, schedule: Q01DX009 (ip), vehicle: saline 97 % of control | [7] 97 % of control | [9] 102 % of control

CCC(=O)Nc1ccc(Cl)cc1OC
inactive: [4] 100 % of control | [5] 102 % of control | [6] 100 % of control

BrC1CCCCN1Cc1cc2ccccc2cc1CN1CCCCC1Br (stereo not given)
inactive: dose: 9.38 mg/kg/injection, schedule: Q01DX001 (ip), vehicle: other 100 % of control | dose: 18.75 mg/kg/injection, schedule: Q01DX001 (ip), vehicle: other 102 % of control
